Like-named read-outs stand apart in the source and are kept apart here. Marks after values point to notes of the source that are not given here.
Columns and labels:
Crj: CD(SD)IGS rats [1] = conditions: male, rat, in vivo, 3 days
Procedure: (§1) The following 10 kinds of commercially available drugs were examined as the test compounds for a potential of inducing PLsis by histopathological examination and peripheral blood lymphocyte testing.
(§2) The following experiments were performed using the prematurely autopsied animals.
(§3) The high-dose dosing suspension was diluted about 3 fold and 10 fold with dispersant/solvent to prepare intermediate- and low-dose dosing suspensions. […] [For LD50, the Summary Basis of Approval (FDA) for each drug was referenced to.]
(§4) The animals were examined for mortality, general conditions, body weight, food consumption and the like using PM4800 (Mettler) and EB3200D (Shimadzu Corporation).
Hematological examination was performed for parameters such as RBC count, hematocrit, hemoglobin concentration, mean corpuscular hemoglobin (MCH), mean corpuscular hemoglobin concentration (MCHC), mean corpuscular volume (MCV), platelet count, WBC count, reticulocyte count, differential WBC, and vacuolated lymphocyte ratio (for PLsis-inducing compounds only) using ADVIA120 (Bayer Medical Ltd.) and E-4000 (Sysmex Corporation).

Crj: CD(SD)IGS rats [2] = conditions: rat, in vivo
Procedure: as §1, §2, §3, §4

Crj: CD(SD)IGS rats [3] = conditions: rat urine, LC-MS/MS, 60 mg/kg/day by gavage for 7 days
Procedure: During that period, the animals were quarantined, examined for general conditions, and weighed. Animals showing no abnormalities were selected and randomly allocated to five groups for urine collection each comprising four males.
The animals were individually housed in wire-net-based metal cages, and the individual cages were placed on water-washable rack in a clean booth as randomized for the animal groups. Animal room environmental conditions comprised a room temperature of 20 to 26° C., a relative humidity of 40 to 70%, and a fresh air ventilation frequency of 8 to 25 times/hour, with a bright phase of 12 hours/day (lighting time: 7:00 am to 7:00 pm). The animals were fed a γ-ray-irradiated powder food (CR-LPF, Oriental Yeast Co., Ltd.) and had free access to the food along with tap water.
A dispersant/medium was added to each test material, and the mixture was stirred to prepare dosing suspensions.
Each test material was administered by gavage at a dosing suspension volume of 10 mL/kg/day once daily for 7 days.
After completion of the administration, pooled urine was collected with ice cooling from all animals under fasting and water denial for about 6 hours. […]
Quantitative analyses of rat urinary hippuric acid and PAG by LC-MS/MS were performed as described below. […]

[4] = from Summary Basis of Approval (FDA); species and route not given; cited from earlier work
Crj: CD(SD)IGS rats [5] = assay: Urinary PAG/hippuric acid ratio by 1H NMR in rats; conditions: rat urine, 3 days, mean n = 3-4
Procedure: During the urine pooling, the collecting vessels were kept in an ice-cooled condition. After the urine collection, the urine was centrifuged at 1500×g for 10 minutes, and not less than 1 mL of the supernatant was collected and stored under freezing (below −70° C.) in a microtube in an ultralow-temperature freezer until the measurement. For the negative control group, 24-hour pooled urine was collected under ice cooling; after the urine collection, the urine was stored at −30° C. until the measurement.

CCN(CC)CCCC(C)Nc1c2ccc(Cl)cc2nc2ccc(OC)cc12 (stereo not drawn) [Quinacrine, quinacrine]
Mean vacuolated lymphocyte ratio (Crj: CD(SD)IGS rats [1]; 60 mg/kg/day): 14%
Mean vacuolated lymphocyte ratio (Crj: CD(SD)IGS rats [1]; 200 mg/kg/day): 32%
Mean vacuolated lymphocyte ratio (Crj: CD(SD)IGS rats [1]; 600 mg/kg/day): 52%
Histopathological changes (PLsis): Liver (Crj: CD(SD)IGS rats [2]; 60 mg/kg/day): +
Histopathological changes (PLsis): Lung (Crj: CD(SD)IGS rats [2]; 60 mg/kg/day): +
Histopathological changes (PLsis): Lymph node (Crj: CD(SD)IGS rats [2]; 60 mg/kg/day): −
Histopathological changes (PLsis): Others (Crj: CD(SD)IGS rats [2]; 60 mg/kg/day): −
Histopathological changes (PLsis): Spleen (Crj: CD(SD)IGS rats [2]; 60 mg/kg/day): −
Histopathological changes (PLsis): Liver (Crj: CD(SD)IGS rats [2]; 200 mg/kg/day): +
Histopathological changes (PLsis): Lung (Crj: CD(SD)IGS rats [2]; 200 mg/kg/day): +
Histopathological changes (PLsis): Lymph node (Crj: CD(SD)IGS rats [2]; 200 mg/kg/day): +
Histopathological changes (PLsis): Others (Crj: CD(SD)IGS rats [2]; 200 mg/kg/day): −
Histopathological changes (PLsis): Spleen (Crj: CD(SD)IGS rats [2]; 200 mg/kg/day): −
Histopathological changes (PLsis): Liver (Crj: CD(SD)IGS rats [2]; 600 mg/kg/day): +
Histopathological changes (PLsis): Lung (Crj: CD(SD)IGS rats [2]; 600 mg/kg/day): +
Histopathological changes (PLsis): Lymph node (Crj: CD(SD)IGS rats [2]; 600 mg/kg/day): +
Histopathological changes (PLsis): Others (Crj: CD(SD)IGS rats [2]; 600 mg/kg/day): −
Histopathological changes (PLsis): Spleen (Crj: CD(SD)IGS rats [2]; 600 mg/kg/day): −
PAG/hippuric acid concentration ratio compared to the control group (Crj: CD(SD)IGS rats [3]): increased
PAG/hippuric acid ratio (Crj: CD(SD)IGS rats [3]; mean ± SD n = 4): 0.2178 ± 0.0919
LD50 [4]: 900 mg/kg
PAG + hippuric acid/creatinine (Crj: CD(SD)IGS rats [5]; 60 mg/kg/day by gavage): 1.45
PAG/PAG + hippuric acid (Crj: CD(SD)IGS rats [5]; 60 mg/kg/day by gavage): 21.82* %
PAG/creatinine (first term of PAG + hippuric acid) (Crj: CD(SD)IGS rats [5]; 60 mg/kg/day by gavage): 0.32
PAG/hippuric acid (Crj: CD(SD)IGS rats [5]; 60 mg/kg/day by gavage): 28.35* %
hippuric acid/creatinine (second term of PAG + hippuric acid) (Crj: CD(SD)IGS rats [5]; 60 mg/kg/day by gavage): 1.13
PAG + hippuric acid/creatinine (Crj: CD(SD)IGS rats [5]; 200 mg/kg/day by gavage): 1.58
PAG/PAG + hippuric acid (Crj: CD(SD)IGS rats [5]; 200 mg/kg/day by gavage): 46.42* %
PAG/creatinine (first term of PAG + hippuric acid) (Crj: CD(SD)IGS rats [5]; 200 mg/kg/day by gavage): 0.75
PAG/hippuric acid (Crj: CD(SD)IGS rats [5]; 200 mg/kg/day by gavage): 91.89* %
hippuric acid/creatinine (second term of PAG + hippuric acid) (Crj: CD(SD)IGS rats [5]; 200 mg/kg/day by gavage): 0.83
PAG + hippuric acid/creatinine (Crj: CD(SD)IGS rats [5]; 600 mg/kg/day by gavage): 1.07*
PAG/PAG + hippuric acid (Crj: CD(SD)IGS rats [5]; 600 mg/kg/day by gavage): 78.62* %
PAG/creatinine (first term of PAG + hippuric acid) (Crj: CD(SD)IGS rats [5]; 600 mg/kg/day by gavage): 0.83
PAG/hippuric acid (Crj: CD(SD)IGS rats [5]; 600 mg/kg/day by gavage): 441.69* %
hippuric acid/creatinine (second term of PAG + hippuric acid) (Crj: CD(SD)IGS rats [5]; 600 mg/kg/day by gavage): 0.24

— patent US7399638B2, “Prediction method for lipidosis” (Takeda Pharmaceutical Company Limited, priority 2003, dated 2008)
